Measured values: patent US20190053492A1, “SUBSTITUTED PYRIDINE COMPOUNDS AS PESTICIDES” (Bayer CropScience Aktiengesellschaft, priority 2016, published 2019)
Read-outs that look alike come from different tables or passages of the source.

Experiments:
[1] = log P by HPLC on reversed-phase column (C 18), EEC Directive 79/831 Annex V.A8; format: physicochemical; conditions: 55° C.; for LOGP_HCOOH: log P (HCOOH); for chromatographic logP: reversed-phase HPLC column (C 18)
Protocol: Temperature: 55° C. […] Called log P (HCOOH) in the table. […] Called log P (neutral) in the table.

Ctenocephalides felis = Ctenocephalides felis oral test; format: in vivo; conditions: application rate 100 ppm in citrated cattle blood, after 2 days, adult cat fleas
Protocol: Ctenocephalides felis—Oral Test Solvent: dimethyl sulphoxide To produce a suitable active ingredient formulation, 10 mg of active ingredient are mixed with 0.5 ml of dimethyl sulphoxide. Dilution with citrated cattle blood gives the desired concentration. About 20 unfed adult cat fleas (Ctenocephalides felis) are placed into a chamber which is closed at the top and bottom with gauze. A metal cylinder whose bottom end is closed with parafilm is placed onto the chamber. The cylinder contains the blood/active ingredient formulation, which can be imbibed by the fleas through the parafilm membrane. After 2 days, the kill in % is determined. 100% means that all of the fleas have been killed; 0% means that none of the fleas have been killed.

Phaedon cochleariae = Phaedon cochleariae spray test; format: in vivo; conditions: after 7 days, Chinese cabbage leaf discs
How it was run: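 Chinese cabbage leaf discs sprayed with compound in acetone/DMF and emulsifier-containing water, then infested with mustard beetle larvae once dry. Efficacy in % scored after 7 days (100% = all larvae killed, 0% = none).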

Spodoptera frugiperda = Spodoptera frugiperda spray test; format: in vivo; conditions: after 7 days, maize leaf discs
How it was run: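 Maize leaf discs were sprayed with compound formulated in acetone/DMF and emulsifier-containing water, dried, then infested with Spodoptera frugiperda caterpillars. Percent kill was scored after 7 days, from 100% (all dead) to 0% (none dead).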

[2] = acidic range pH 2.7, 0.1% aqueous formic acid and acetonitrile, reversed-phase column (C 18)
[3] = log P, neutral range, HPLC on reversed-phase column (C 18)
[4] = acidic range at pH 2.7, 0.1% aqueous formic acid and acetonitrile, HPLC on reversed-phase column (C 18)

N#Cc1cccc(CNC(=O)c2cc(-c3ccc(C(F)(F)F)cc3)cc(NC(=O)C3CC3)n2)c1 [Example I-004]
LOGP_HCOOH [1, 2]: 3.83 | efficacy (kill in %) (Ctenocephalides felis): 100% | efficacy (beetle larvae killed) (Phaedon cochleariae; application rate 500 g/ha): 100% | efficacy (caterpillars killed) (Spodoptera frugiperda; application rate 500 g/ha): 100%

CC(=O)Nc1cc(-c2ccc(C(F)(F)F)cc2)cc(C(=O)NCc2ccc(C#N)cc2)n1 [Example I-017]
LOGP_HCOOH [1, 2]: 3.15 | LOGP_NEUTRAL [1, 3]: 3.13 | efficacy (kill in %) (Ctenocephalides felis): 98% | efficacy (beetle larvae killed) (Phaedon cochleariae; application rate 500 g/ha): 100% | efficacy (caterpillars killed) (Spodoptera frugiperda; application rate 500 g/ha): 100%

N#CC1(NC(=O)c2cc(-c3ccc(C(F)(F)F)cc3)cc(NC(=O)C3CC3)n2)CC1 [Example I-041]
LOGP_HCOOH [1, 2]: 3.28 | LOGP_NEUTRAL [1, 3]: 3.18 | efficacy (kill in %) (Ctenocephalides felis): 95% | efficacy (beetle larvae killed) (Phaedon cochleariae; application rate 100 g/ha): 100% | efficacy (beetle larvae killed) (Phaedon cochleariae; application rate 500 g/ha): 100% | efficacy (caterpillars killed) (Spodoptera frugiperda; application rate 100 g/ha): 100% | efficacy (caterpillars killed) (Spodoptera frugiperda; application rate 500 g/ha): 100%

N#Cc1ccc(CNC(=O)c2cc(-c3ccc(OC(F)(F)F)cc3)cc(NC(=O)C3CC3)n2)cn1 [Example I-051]
LOGP_HCOOH [1, 2]: 3.49 | LOGP_NEUTRAL [1, 3]: 3.37 | efficacy (kill in %) (Ctenocephalides felis): 100% | efficacy (beetle larvae killed) (Phaedon cochleariae; application rate 100 g/ha): 100% | efficacy (beetle larvae killed) (Phaedon cochleariae; application rate 500 g/ha): 100% | efficacy (caterpillars killed) (Spodoptera frugiperda; application rate 100 g/ha): 100% | efficacy (caterpillars killed) (Spodoptera frugiperda; application rate 500 g/ha): 100%

O=C(NCc1ccc(C(F)(F)F)cc1F)c1cc(-c2ccc(OC(F)(F)F)cc2)cc(NC(=O)C2CC2)n1 [Example I-065]
LOGP_HCOOH [1, 2]: 4.80 | LOGP_NEUTRAL [1, 3]: 4.74 | efficacy (kill in %) (Ctenocephalides felis): 95% | efficacy (beetle larvae killed) (Phaedon cochleariae; application rate 500 g/ha): 83% | efficacy (caterpillars killed) (Spodoptera frugiperda; application rate 100 g/ha): 100% | efficacy (caterpillars killed) (Spodoptera frugiperda; application rate 500 g/ha): 100%

CC(C)C(=O)Nc1cc(-c2ccc(OC(F)(F)F)cc2)cc(C(=O)NC2(C#N)CC2)n1 [Example I-075]
LOGP_HCOOH [1, 2]: 3.58 | LOGP_NEUTRAL [1, 3]: 3.47 | efficacy (kill in %) (Ctenocephalides felis): 100% | efficacy (beetle larvae killed) (Phaedon cochleariae; application rate 500 g/ha): 100% | efficacy (caterpillars killed) (Spodoptera frugiperda; application rate 500 g/ha): 100%

N#CC1(NC(=O)c2cc(-c3ccc(OC(F)(F)F)cc3)cc(NC(=O)C3CC3)n2)CC1 [Example I-076]
LOGP_HCOOH [1, 2]: 3.39 | LOGP_NEUTRAL [1, 3]: 3.29 | efficacy (kill in %) (Ctenocephalides felis): 100% | efficacy (beetle larvae killed) (Phaedon cochleariae; application rate 100 g/ha): 100% | efficacy (beetle larvae killed) (Phaedon cochleariae; application rate 500 g/ha): 100% | efficacy (caterpillars killed) (Spodoptera frugiperda; application rate 100 g/ha): 100% | efficacy (caterpillars killed) (Spodoptera frugiperda; application rate 500 g/ha): 100%

O=C(Cc1ccc(C(F)(F)F)cc1)Nc1cc(-c2ccc(C(F)(F)F)cc2)cc(C(=O)NC2CC2)n1 [Example I-088]
LOGP_HCOOH [1, 2]: 4.37 | LOGP_NEUTRAL [1, 3]: 5.54 | efficacy (kill in %) (Ctenocephalides felis): 90% | efficacy (caterpillars killed) (Spodoptera frugiperda; application rate 100 g/ha): 100% | efficacy (caterpillars killed) (Spodoptera frugiperda; application rate 500 g/ha): 83%

O=C(NCc1ccc2c(c1)OC(F)(F)O2)c1cc(-c2ccc(OC(F)(F)F)cc2)cc(NC(=O)C2CC2)n1 [Example I-095]
LOGP_HCOOH [1, 2]: 4.79 | LOGP_NEUTRAL [1, 3]: 4.61 | efficacy (kill in %) (Ctenocephalides felis): 95% | efficacy (beetle larvae killed) (Phaedon cochleariae; application rate 500 g/ha): 83% | efficacy (caterpillars killed) (Spodoptera frugiperda; application rate 500 g/ha): 100%

O=C(NCc1ccc([N+](=O)[O-])cc1F)c1cc(-c2ccc(OC(F)(F)F)cc2)cc(NC(=O)C2CC2)n1 [Example I-102]
LOGP_HCOOH [1, 2]: 4.29 | LOGP_NEUTRAL [1, 3]: 4.16 | efficacy (kill in %) (Ctenocephalides felis): 100% | efficacy (beetle larvae killed) (Phaedon cochleariae; application rate 100 g/ha): 100% | efficacy (beetle larvae killed) (Phaedon cochleariae; application rate 500 g/ha): 100% | efficacy (caterpillars killed) (Spodoptera frugiperda; application rate 100 g/ha): 83% | efficacy (caterpillars killed) (Spodoptera frugiperda; application rate 500 g/ha): 100%

N#CC1(NC(=O)c2cc(-c3ccc(OC(F)(F)F)cc3)cc(NC(=O)C3CC3)n2)CCC1 [Example I-109]
LOGP_HCOOH [1, 2]: 3.78 | LOGP_NEUTRAL [1, 3]: 3.68 | efficacy (kill in %) (Ctenocephalides felis): 100% | efficacy (beetle larvae killed) (Phaedon cochleariae; application rate 500 g/ha): 100% | efficacy (caterpillars killed) (Spodoptera frugiperda; application rate 500 g/ha): 100%

CC(C)C(=O)Nc1cc(-c2ccc(OC(F)(F)F)cc2)cc(C(=O)NCc2cc(F)c(C#N)cc2F)n1 [Example I-110]
LOGP_HCOOH [1, 4]: 4.33 | LOGP_NEUTRAL [1, 3]: 4.19 | efficacy (kill in %) (Ctenocephalides felis): 100% | efficacy (beetle larvae killed) (Phaedon cochleariae; application rate 100 g/ha): 100% | efficacy (beetle larvae killed) (Phaedon cochleariae; application rate 500 g/ha): 100% | efficacy (caterpillars killed) (Spodoptera frugiperda; application rate 100 g/ha): 100% | efficacy (caterpillars killed) (Spodoptera frugiperda; application rate 500 g/ha): 100%

O=C(NCc1ccccn1)c1cc(-c2ccc(OC(F)(F)F)cc2)cc(NC(=O)C2CC2)n1 [Example I-116]
LOGP_HCOOH [1, 4]: 2.88 | LOGP_NEUTRAL [1, 3]: 3.30 | efficacy (kill in %) (Ctenocephalides felis): 100% | efficacy (beetle larvae killed) (Phaedon cochleariae; application rate 100 g/ha): 100% | efficacy (beetle larvae killed) (Phaedon cochleariae; application rate 500 g/ha): 100% | efficacy (caterpillars killed) (Spodoptera frugiperda; application rate 500 g/ha): 100%

C#CC(C)NC(=O)c1cc(-c2ccc(OC(F)(F)F)cc2)cc(NC(=O)C2CC2)n1 (stereo not shown) [Example I-130]
LOGP_HCOOH [1, 4]: 3.84 | efficacy (kill in %) (Ctenocephalides felis): 100% | efficacy (beetle larvae killed) (Phaedon cochleariae; application rate 100 g/ha): 100% | efficacy (beetle larvae killed) (Phaedon cochleariae; application rate 500 g/ha): 100% | efficacy (caterpillars killed) (Spodoptera frugiperda; application rate 100 g/ha): 83% | efficacy (caterpillars killed) (Spodoptera frugiperda; application rate 500 g/ha): 100%

N#CCNC(=O)c1cc(-c2ccc(OC(F)(F)F)cc2)cc(NC(=O)C2CC2)n1 [Example I-131]
LOGP_HCOOH [1, 4]: 3.15 | efficacy (kill in %) (Ctenocephalides felis): 100% | efficacy (beetle larvae killed) (Phaedon cochleariae; application rate 500 g/ha): 100% | efficacy (caterpillars killed) (Spodoptera frugiperda; application rate 100 g/ha): 100% | efficacy (caterpillars killed) (Spodoptera frugiperda; application rate 500 g/ha): 100%

N#Cc1ccc(CNC(=O)c2cc(-c3ccc(C(F)(C(F)(F)F)C(F)(F)F)cc3)cc(NC(=O)C3CC3)n2)cc1 [Example I-150]
LOGP_HCOOH [1, 4]: 4.51 | LOGP_NEUTRAL [1, 3]: 4.41 | efficacy (kill in %) (Ctenocephalides felis): 95% | efficacy (caterpillars killed) (Spodoptera frugiperda; application rate 100 g/ha): 100% | efficacy (caterpillars killed) (Spodoptera frugiperda; application rate 500 g/ha): 100%

O=C(NCC1CCCCC1)c1cc(-c2ccc(OC(F)(F)F)cc2)cc(NC(=O)C2CC2)n1 [Example I-167]
LOGP_HCOOH [1, 4]: 5.11 | LOGP_NEUTRAL [1, 3]: 4.89 | efficacy (kill in %) (Ctenocephalides felis): 90%

N#Cc1ccc(CNC(=O)c2cc(-c3ccc([S+]([O-])C(F)F)cc3)cc(NC(=O)C3CC3)n2)cc1 (stereo not shown) [Example I-179]
LOGP_HCOOH [1, 4]: 2.53 | LOGP_NEUTRAL [1, 3]: 2.47 | efficacy (kill in %) (Ctenocephalides felis): 100% | efficacy (beetle larvae killed) (Phaedon cochleariae; application rate 100 g/ha): 83% | efficacy (beetle larvae killed) (Phaedon cochleariae; application rate 500 g/ha): 100% | efficacy (caterpillars killed) (Spodoptera frugiperda; application rate 500 g/ha): 83%

COC(=O)N(Cc1ccc(C#N)cc1)C(=O)c1cc(-c2ccc(OC(F)(F)F)cc2)cc(N(C(=O)OC)C(=O)C2CC2)n1 [Example I-232, Methyl (4-cyanobenzyl)({6-[(cyclopropylcarbonyl)(methoxycarbonyl)amino]-4-[4-(trifluoromethoxy)phenyl]pyridin-2-yl}carbonyl)carbamate]
LOGP_HCOOH [1, 4]: 4.30 | LOGP_NEUTRAL [1, 3]: 4.31 | chromatographic logP ([1]; pH 2.7, LC-MS acidic range, pH 2.7, 0.1% formic acid/acetonitrile, read-out: log P (acidic) / log P (HCOOH)): 4.3 | chromatographic logP ([1]; pH 7.8, LC-MS neutral range, pH 7.8, ammonium hydrogencarbonate/acetonitrile, read-out: log P (neutral)): 4.31 | pest or weed control at 100 ppm (Ctenocephalides felis; Ctenocephalides felis, po, 48 h, read-out: efficacy (kill in %)): 100% | pest or weed control at 100 g/ha (Spodoptera frugiperda; Spodoptera frugiperda, foliar, 168 h, application rate 100 g/ha, read-out: efficacy (caterpillars killed)): 100% | pest or weed control at 500 g/ha (Spodoptera frugiperda; Spodoptera frugiperda, foliar, 168 h, application rate 500 g/ha, read-out: efficacy (caterpillars killed)): 100%

CCONC(=O)c1cc(-c2ccc(OC(F)(F)F)cc2)cc(NC(=O)C2CC2)n1 [Example I-235]
LOGP_HCOOH [1, 2]: 3.21 | LOGP_NEUTRAL ([1]; log P (neutral), HPLC reversed-phase column (C 18)): 3.14 | efficacy (kill in %) (Ctenocephalides felis): 95% | efficacy (beetle larvae killed) (Phaedon cochleariae; application rate 500 g/ha): 100%
